Legend:
[1] = molecular target: T1, human adrenergic-α2A receptor (Homo sapiens, UniProt P08913); experiment: Radioligand binding experiment for α2A-adrenoceptor ([3H]-raulwolscine competition, CHO cell membranes); conditions: [3H]raulwolscine 1 nM, membranes of CHO cells transfected with human α2A receptor; read-out: pIC50 α2A (converted)
T1 construct: expressed in transfected cells; membrane preparation
T1 sequence (P08913 1-465): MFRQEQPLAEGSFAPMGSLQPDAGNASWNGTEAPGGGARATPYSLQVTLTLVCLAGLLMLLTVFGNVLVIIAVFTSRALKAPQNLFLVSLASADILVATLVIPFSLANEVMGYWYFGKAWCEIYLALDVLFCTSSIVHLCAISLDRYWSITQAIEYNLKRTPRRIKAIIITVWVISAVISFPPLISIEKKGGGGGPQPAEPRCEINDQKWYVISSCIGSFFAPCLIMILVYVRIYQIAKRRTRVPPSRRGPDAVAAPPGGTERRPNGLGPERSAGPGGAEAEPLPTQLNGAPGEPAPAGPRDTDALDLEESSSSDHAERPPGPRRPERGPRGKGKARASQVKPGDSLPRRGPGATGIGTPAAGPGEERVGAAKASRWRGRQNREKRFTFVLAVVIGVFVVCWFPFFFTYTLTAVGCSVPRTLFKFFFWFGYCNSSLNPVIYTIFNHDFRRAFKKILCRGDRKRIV
In short: (§1)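 CHO cell membranes stably expressing human α2A, α2B or α2C receptor were incubated with 1 nM [3H]-raulwolscine ± test compound, 60 min at 25° C in glycylglycine 25 mM, pH 8.0, then filtered and counted. Nonspecific binding: 1 μM oxymetazoline (α2A, α2B) or 1 μM spiroxatrine (α2C). pIC50 from nonlinear regression of % total binding.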

[2] = molecular target: T2, human adrenergic-α2B receptor (Homo sapiens, UniProt P18089); experiment: Radioligand binding experiment for α2B-adrenoceptor ([3H]-raulwolscine competition, CHO cell membranes); conditions: [3H]raulwolscine 1 nM, membranes of CHO cells transfected with human α2B receptor; read-out: pIC50 α2B (converted)
T2 construct: expressed in transfected cells; membrane preparation
T2 sequence (P18089 1-450): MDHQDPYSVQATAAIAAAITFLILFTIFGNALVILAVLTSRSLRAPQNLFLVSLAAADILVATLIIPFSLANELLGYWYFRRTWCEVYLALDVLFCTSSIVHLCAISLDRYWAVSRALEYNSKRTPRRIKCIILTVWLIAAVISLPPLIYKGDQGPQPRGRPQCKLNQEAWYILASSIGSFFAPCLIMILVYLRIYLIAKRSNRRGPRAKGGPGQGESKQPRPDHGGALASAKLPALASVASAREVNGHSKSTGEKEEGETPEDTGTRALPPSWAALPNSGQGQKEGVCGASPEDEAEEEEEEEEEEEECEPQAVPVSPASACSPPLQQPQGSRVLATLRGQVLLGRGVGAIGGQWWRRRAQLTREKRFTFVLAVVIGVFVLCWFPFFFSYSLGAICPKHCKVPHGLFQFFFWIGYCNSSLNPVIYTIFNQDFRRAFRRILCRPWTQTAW
In short: as §1

[3] = molecular target: T3, human adrenergic-α2C receptor (Homo sapiens, UniProt P18825); experiment: Radioligand binding experiment for α2C-adrenoceptor ([3H]-raulwolscine competition, CHO cell membranes); conditions: [3H]raulwolscine 1 nM, membranes of CHO cells transfected with human α2C receptor; read-out: pIC50 α2C (converted)
T3 construct: expressed in transfected cells; membrane preparation
T3 sequence (P18825 1-462): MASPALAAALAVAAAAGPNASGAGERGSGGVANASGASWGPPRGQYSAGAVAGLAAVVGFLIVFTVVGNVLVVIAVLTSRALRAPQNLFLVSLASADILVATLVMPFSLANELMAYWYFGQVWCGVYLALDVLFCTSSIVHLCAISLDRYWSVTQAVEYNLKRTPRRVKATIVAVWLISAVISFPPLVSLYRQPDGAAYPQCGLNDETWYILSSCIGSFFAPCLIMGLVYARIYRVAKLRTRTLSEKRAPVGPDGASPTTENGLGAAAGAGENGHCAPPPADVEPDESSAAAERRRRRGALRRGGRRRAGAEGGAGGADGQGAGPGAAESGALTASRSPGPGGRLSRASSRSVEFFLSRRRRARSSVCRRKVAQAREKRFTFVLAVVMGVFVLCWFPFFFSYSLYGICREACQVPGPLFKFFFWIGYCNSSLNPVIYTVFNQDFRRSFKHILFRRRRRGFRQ
In short: as §1

SMILES	IC50 [1] [nM]	IC50 [2] [nM]	IC50 [3] [nM]
O=c1n(-c2ccc(CNCc3ccccn3)cc2)cnn1CCNCCOc1ccccc1 [compound 96]	39.8	200	3.16
O=c1n(-c2ccc3c(c2)CCNC3)cnn1CCNCCOc1ccccc1 [compound 97]	50.1	251	2
O=c1n(-c2ccc3c(c2)CCN(CC2CCCCC2)C3)cnn1CCNCCOc1ccccc1 [compound 98]	501	251	20
O=c1n(-c2ccc3c(c2)CCN(Cc2ccc(F)cc2)C3)cnn1CCNCCOc1ccccc1 [compound 99]	251	200	10
CC(=O)N1CCc2cc(-n3cnn(CCNCCOc4ccccc4)c3=O)ccc2C1 [compound 100]	631	398	10
CS(=O)(=O)N1CCc2cc(-n3cnn(CCNCCOc4ccccc4)c3=O)ccc2C1 [compound 101]	631	251	7.94
O=c1n(-c2ccc3c(c2)CCN(CCN2CCCC2)C3)cnn1CCNCCOc1ccccc1 [compound 102]	79.4	251	3.16
CC(C)N1CCc2cc(-n3cnn(CCNCCOc4ccccc4)c3=O)ccc2C1 [compound 103]	501	794	25.1
O=c1n(CC2CCN(CCOc3ccccc3)CC2)nnn1-c1ccc(CN2CCOCC2)cc1 [compound 104]	63.1	79.4	5.01
O=c1n(CCNCCOc2ccccc2)nnn1-c1ccc(CN2CCC(O)CC2)cc1 [compound 107]	501	398	20
C/C(=C\c1ccccc1)CN1CCC(n2ncn(-c3ccc(CN4C(=O)c5ccccc5C4=O)cc3)c2=O)CC1 [compound 109]	31.6	39.8	2

Source: patent US20100029620A1, “SUBSTITUTED TRIAZOLINE, TETRAZOLONE AND IMIDAZOLONE DERIVATIVES FOR USE AS A MEDICINE” (JANSSEN PHARMACEUTICA N.V., priority 2004, published 2010)
